Results reported in ChEMBL document CHEMBL1201862, “PubChem BioAssay data set” (2004).
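Each compound was tested at five concentrations against cells in 96-well plates for 48 hours. GI50: concentration for 50% inhibition of growth.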 Active and inactive are the calls of the source. Rule as the data show it: active = GI50 up to about 1.1 µM and inactive = higher.

How the values were obtained:
Assay in all cases: growth of human tumour cells (NCI), 48 h
786-0 = system: 786-0
A498 = system: A498
A549 = system: A549
ACHN = system: ACHN
CAKI-1 = system: CAKI-1
CCRF-CEM = system: CCRF-CEM
COLO 205 = system: COLO 205
DU-145 = system: DU-145
EKVX = system: EKVX
HCC 2998 = system: HCC 2998
HCT-116 = system: HCT-116
HCT-15 = system: HCT-15
HOP-62 = system: HOP-62
HOP-92 = system: HOP-92
HT-29 = system: HT-29
Hs-578T = system: Hs-578T
IGROV-1 = system: IGROV-1
K562 = system: K562
KM12 = system: KM12
LOX IMVI = system: LOX IMVI
M14 = system: M14
MDA-MB-231 = system: MDA-MB-231
MDA-MB-435 = system: MDA-MB-435
MDA-N = system: MDA-N
MOLT-4 = system: MOLT-4
Malme-3M = system: Malme-3M
NCI-H226 = system: NCI-H226
NCI-H23 = system: NCI-H23
NCI-H460 = system: NCI-H460
NCI-H522 = system: NCI-H522
NCI/ADR-RES = system: NCI/ADR-RES
OVCAR-3 = system: OVCAR-3
OVCAR-4 = system: OVCAR-4
OVCAR-5 = system: OVCAR-5
OVCAR-8 = system: OVCAR-8
RXF 393 = system: RXF 393
SF-268 = system: SF-268
SF-295 = system: SF-295
SF-539 = system: SF-539
SK-MEL-28 = system: SK-MEL-28
SK-MEL-2 = system: SK-MEL-2
SK-MEL-5 = system: SK-MEL-5
SK-OV-3 = system: SK-OV-3
SN12C = system: SN12C
SNB-19 = system: SNB-19
SNB-75 = system: SNB-75
SW-620 = system: SW-620
T47D = system: T47D
TK-10 = system: TK-10
U-251 = system: U-251
UACC-257 = system: UACC-257
UACC-62 = system: UACC-62
UO-31 = system: UO-31
MCF7 = system: MCF7
PC-3 = system: PC-3
RPMI-8226 = system: RPMI-8226
SR = system: SR

SMILES: CC(C)CCc1n[nH]c(=O)n1/N=C\c1ccccc1
- GI50 (786-0): > 100 µM (inactive)
- GI50 (A498): 49 µM (inactive)
- GI50 (A549): > 100 µM (inactive)
- GI50 (ACHN): > 100 µM (inactive)
- GI50 (CAKI-1): > 10 µM (inactive)
- GI50 (CCRF-CEM): > 100 µM (inactive)
- GI50 (COLO 205): > 100 µM (inactive)
- GI50 (DU-145): > 100 µM (inactive)
- GI50 (EKVX): > 100 µM (inactive)
- GI50 (HCC 2998): > 100 µM (inactive)
- GI50 (HCT-116): > 100 µM (inactive)
- GI50 (HCT-15): > 100 µM
- GI50 (HOP-62): > 100 µM (inactive)
- GI50 (HOP-92): > 100 µM (inactive)
- GI50 (HT-29): > 100 µM (inactive)
- GI50 (Hs-578T): > 100 µM (inactive)
- GI50 (IGROV-1): > 100 µM (inactive)
- GI50 (K562): 83 µM (inactive)
- GI50 (KM12): > 100 µM (inactive)
- GI50 (LOX IMVI): > 100 µM (inactive)
- GI50 (M14): > 100 µM (inactive)
- GI50 (MDA-MB-231): > 100 µM (inactive)
- GI50 (MDA-MB-435): > 100 µM (inactive)
- GI50 (MDA-N): > 100 µM (inactive)
- GI50 (MOLT-4): 67.8 µM (inactive)
- GI50 (Malme-3M): > 100 µM (inactive)
- GI50 (NCI-H226): > 100 µM (inactive)
- GI50 (NCI-H23): > 100 µM (inactive)
- GI50 (NCI-H460): > 100 µM (inactive)
- GI50 (NCI-H522): 85.7 µM (inactive)
- GI50 (NCI/ADR-RES): 57.4 µM (inactive)
- GI50 (OVCAR-3): > 100 µM (inactive)
- GI50 (OVCAR-4): > 100 µM (inactive)
- GI50 (OVCAR-5): > 100 µM (inactive)
- GI50 (OVCAR-8): > 100 µM (inactive)
- GI50 (RXF 393): > 100 µM (inactive)
- GI50 (SF-268): > 100 µM (inactive)
- GI50 (SF-295): > 100 µM (inactive)
- GI50 (SF-539): > 100 µM (inactive)
- GI50 (SK-MEL-28): > 100 µM (inactive)
- GI50 (SK-MEL-2): 93.1 µM (inactive)
- GI50 (SK-MEL-5): > 100 µM (inactive)
- GI50 (SK-OV-3): > 100 µM (inactive)
- GI50 (SN12C): > 100 µM (inactive)
- GI50 (SNB-19): > 100 µM (inactive)
- GI50 (SNB-75): > 100 µM (inactive)
- GI50 (SW-620): > 100 µM (inactive)
- GI50 (T47D): > 100 µM (inactive)
- GI50 (TK-10): > 100 µM (inactive)
- GI50 (U-251): > 100 µM (inactive)
- GI50 (UACC-257): > 100 µM (inactive)
- GI50 (UACC-62): > 100 µM (inactive)
- GI50 (UO-31): 26.4 µM (inactive)

SMILES: CC(=O)O[C@@H]1CN(S(=O)(=O)c2ccc(C)cc2)C[C@@H]1C1CCCCC1
- GI50 (A498): 20 µM (inactive)
- GI50 (ACHN): 37.5 µM (inactive)
- GI50 (CAKI-1): 19 µM (inactive)
- GI50 (CCRF-CEM): 37.8 µM (inactive)
- GI50 (COLO 205): 18.5 µM (inactive)
- GI50 (DU-145): 30.8 µM (inactive)
- GI50 (EKVX): 19.9 µM (inactive)
- GI50 (HCC 2998): 42.5 µM (inactive)
- GI50 (HCT-15): 32.6 µM
- GI50 (HOP-62): 21.9 µM (inactive)
- GI50 (HOP-92): 14.7 µM (inactive)
- GI50 (HT-29): 22.9 µM (inactive)
- GI50 (Hs-578T): 11.5 µM (inactive)
- GI50 (IGROV-1): 17.3 µM (inactive)
- GI50 (K562): 45.7 µM (inactive)
- GI50 (KM12): 16.1 µM (inactive)
- GI50 (LOX IMVI): 24.6 µM (inactive)
- GI50 (M14): 15.8 µM (inactive)
- GI50 (MCF7): 19.4 µM (inactive)
- GI50 (MDA-MB-435): 18.7 µM (inactive)
- GI50 (MDA-N): 17.1 µM (inactive)
- GI50 (MOLT-4): 25.5 µM (inactive)
- GI50 (NCI-H226): 16.5 µM (inactive)
- GI50 (NCI-H23): 38.5 µM (inactive)
- GI50 (NCI-H460): 34.5 µM (inactive)
- GI50 (NCI/ADR-RES): 20.6 µM (inactive)
- GI50 (OVCAR-3): 15 µM (inactive)
- GI50 (OVCAR-4): 50.6 µM (inactive)
- GI50 (OVCAR-5): 26.7 µM (inactive)
- GI50 (OVCAR-8): 24.8 µM (inactive)
- GI50 (PC-3): 18.3 µM (inactive)
- GI50 (RPMI-8226): 25.5 µM (inactive)
- GI50 (SF-268): 16.8 µM (inactive)
- GI50 (SF-295): 37.9 µM (inactive)
- GI50 (SF-539): < 0.01 µM (active)
- GI50 (SK-MEL-28): 14.5 µM (inactive)
- GI50 (SK-MEL-2): 17 µM (inactive)
- GI50 (SK-MEL-5): 19.2 µM (inactive)
- GI50 (SK-OV-3): 62.2 µM (inactive)
- GI50 (SNB-19): 54.8 µM (inactive)
- GI50 (SNB-75): 19.8 µM (inactive)
- GI50 (SR): 23.4 µM (inactive)
- GI50 (SW-620): 20.4 µM (inactive)
- GI50 (T47D): 31.8 µM (inactive)
- GI50 (TK-10): 14.2 µM (inactive)
- GI50 (U-251): 17.7 µM (inactive)
- GI50 (UACC-257): 15.4 µM (inactive)
- GI50 (UACC-62): 16.1 µM (inactive)
- GI50 (UO-31): 31 µM (inactive)
